In PubChem BioAssay (NCI):
“And” between values parts separate entries of the source, which are not always exact repeats. Identical values can stand only once.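 The compound was tested at five concentrations on cells cultured in 96-well plates, with a 48-hour exposure period. Abbreviation: GI50, concentration required for 50% inhibition of growth. TGI: concentration producing complete growth inhibition.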

Columns and labels:
Assay in all cases: inhibition of tumour cell growth, NCI panel, 48 h
SK-MEL-2 melanoma = test system: SK-MEL-2 melanoma
UACC-257 melanoma = test system: UACC-257 melanoma
MCF7 breast = test system: MCF7 breast
HCT-15 colon = test system: HCT-15 colon
SF-268 CNS = test system: SF-268 CNS
NCI/ADR-RES ovarian = test system: NCI/ADR-RES ovarian
NCI-H522 lung = test system: NCI-H522 lung
SK-OV-3 ovarian = test system: SK-OV-3 ovarian
SR leukemia = test system: SR leukemia
LOX IMVI melanoma = test system: LOX IMVI melanoma
T-47D breast = test system: T-47D breast
NCI-H226 lung = test system: NCI-H226 lung
MOLT-4 leukemia = test system: MOLT-4 leukemia
KM12 colon = test system: KM12 colon
BT-549 breast = test system: BT-549 breast
HOP-92 NSCLC = test system: HOP-92 NSCLC
NCI-H23 lung = test system: NCI-H23 lung
SNB-19 CNS = test system: SNB-19 CNS
UACC-62 melanoma = test system: UACC-62 melanoma
HCT-116 colon = test system: HCT-116 colon
HL-60(TB) leukemia = test system: HL-60(TB) leukemia
SN12C renal = test system: SN12C renal
MALME-3M melanoma = test system: MALME-3M melanoma
SW-620 colon = test system: SW-620 colon
U251 CNS = test system: U251 CNS
A549 NSCLC = test system: A549 NSCLC
MDA-MB-231 breast = test system: MDA-MB-231 breast
SF-295 CNS = test system: SF-295 CNS
MDA-N = test system: MDA-N
DU-145 prostate = test system: DU-145 prostate
HOP-62 NSCLC = test system: HOP-62 NSCLC
HT29 colon = test system: HT29 colon
MDA-MB-435 = test system: MDA-MB-435
CAKI-1 renal = test system: CAKI-1 renal
SF-539 CNS = test system: SF-539 CNS
M14 melanoma = test system: M14 melanoma
K-562 leukemia = test system: K-562 leukemia
HCC-2998 colon = test system: HCC-2998 colon
UO-31 renal = test system: UO-31 renal
OVCAR-8 ovarian = test system: OVCAR-8 ovarian
A498 renal = test system: A498 renal
RPMI-8226 leukemia = test system: RPMI-8226 leukemia
COLO 205 colon = test system: COLO 205 colon
SNB-75 CNS = test system: SNB-75 CNS
OVCAR-4 ovarian = test system: OVCAR-4 ovarian
ACHN renal = test system: ACHN renal
HS 578T breast = test system: HS 578T breast
OVCAR-5 ovarian = test system: OVCAR-5 ovarian
SK-MEL-28 melanoma = test system: SK-MEL-28 melanoma
PC-3 prostate = test system: PC-3 prostate
RXF 393 renal = test system: RXF 393 renal
EKVX NSCLC = test system: EKVX NSCLC
SK-MEL-5 melanoma = test system: SK-MEL-5 melanoma
TK-10 renal = test system: TK-10 renal
NCI-H460 lung = test system: NCI-H460 lung
IGROV1 ovarian = test system: IGROV1 ovarian
OVCAR-3 ovarian = test system: OVCAR-3 ovarian
CCRF-CEM leukemia = test system: CCRF-CEM leukemia
786-0 renal = test system: 786-0 renal

`CCCCCC(=O)Nc1n[nH]nc1C(N)=O` was tested, and the TGI (SK-MEL-2 melanoma) was > 100 µM, the TGI (UACC-257 melanoma) was > 100 µM and the TGI (MCF7 breast) was > 100 µM. The TGI (HCT-15 colon) was > 100 µM, the TGI (SF-268 CNS) was > 100 µM and the TGI (NCI/ADR-RES ovarian) was > 100 µM. The TGI (NCI-H522 lung) was > 100 µM, the TGI (SK-OV-3 ovarian) was > 100 µM and the TGI (SR leukemia) was > 100 µM. For the same molecule, the TGI (LOX IMVI melanoma) was > 100 µM, the TGI (T-47D breast) was > 100 µM and the TGI (NCI-H226 lung) was > 100 µM. For the same molecule, the TGI (MOLT-4 leukemia) was > 100 µM, the TGI (KM12 colon) was > 100 µM and the TGI (BT-549 breast) was > 100 µM. The TGI (HOP-92 NSCLC) was > 100 µM, the TGI (NCI-H23 lung) was > 100 µM and the TGI (SNB-19 CNS) was > 100 µM. For the same molecule, the TGI (UACC-62 melanoma) was > 100 µM, the TGI (HCT-116 colon) was > 100 µM and the TGI (HL-60(TB) leukemia) was > 100 µM. For the same molecule, the TGI (SN12C renal) was > 100 µM, the TGI (MALME-3M melanoma) was > 100 µM and the TGI (SW-620 colon) was > 100 µM. The TGI (U251 CNS) was > 100 µM, the TGI (A549 NSCLC) was > 100 µM and the TGI (MDA-MB-231 breast) was > 100 µM. The TGI (SF-295 CNS) was > 100 µM, the TGI (MDA-N) was > 100 µM and the TGI (DU-145 prostate) was > 100 µM. The TGI (HOP-62 NSCLC) was > 100 µM, the TGI (HT29 colon) was > 100 µM and the TGI (MDA-MB-435) was > 100 µM. For the same molecule, the TGI (CAKI-1 renal) was > 100 µM, the TGI (SF-539 CNS) was > 100 µM and the TGI (M14 melanoma) was > 100 µM. For the same molecule, the TGI (K-562 leukemia) was > 100 µM, the TGI (HCC-2998 colon) was > 100 µM and the TGI (UO-31 renal) was > 100 µM. For the same molecule, the TGI (OVCAR-8 ovarian) was > 100 µM, the TGI (A498 renal) was > 100 µM and the TGI (RPMI-8226 leukemia) was > 100 µM. The TGI (COLO 205 colon) was > 100 µM, the TGI (SNB-75 CNS) was > 100 µM and the TGI (OVCAR-4 ovarian) was > 100 µM. For the same molecule, the TGI (ACHN renal) was > 100 µM, the TGI (HS 578T breast) was > 100 µM and the TGI (OVCAR-5 ovarian) was > 100 µM. The TGI (SK-MEL-28 melanoma) was > 100 µM, the TGI (PC-3 prostate) was > 100 µM and the TGI (RXF 393 renal) was > 100 µM. The TGI (EKVX NSCLC) was > 100 µM, the TGI (SK-MEL-5 melanoma) was > 100 µM and the TGI (TK-10 renal) was > 100 µM. The TGI (NCI-H460 lung) was > 100 µM, the TGI (IGROV1 ovarian) was > 100 µM and the TGI (OVCAR-3 ovarian) was > 100 µM. The TGI (CCRF-CEM leukemia) was > 100 µM and the TGI (786-0 renal) was > 100 µM.

In the case of `COc1cc2cc(C(=O)N3CC(CCl)c4c3cc(NC(=O)C(C)(C)c3ccccc3[N+](=O)[O-])c3ccccc43)[nH]c2c(OC)c1OC` (stereo not drawn), the GI50 (SK-MEL-2 melanoma) was 110 µM, the GI50 (UACC-257 melanoma) was 18.9 µM and the TGI (UACC-257 melanoma) was 14.1 µM and 75.6 µM. For the same molecule, the GI50 (MCF7 breast) was 16.1 µM, the GI50 (HCT-15 colon) was 13.2 µM and the GI50 (SF-268 CNS) was 19.5 µM. For the same molecule, the GI50 (NCI/ADR-RES ovarian) was 11.3 µM, the GI50 (NCI-H522 lung) was 38.4 µM and the GI50 (SK-OV-3 ovarian) was 70 µM. The TGI (SR leukemia) was > 600 µM, the TGI (LOX IMVI melanoma) was 6.86 µM and the GI50 (T-47D breast) was 61.5 µM. For the same molecule, the GI50 (NCI-H226 lung) was 118 µM, the TGI (NCI-H226 lung) was 50 µM and 281 µM and the GI50 (MOLT-4 leukemia) was 33.7 µM. The GI50 (KM12 colon) was 48.2 µM, the GI50 (BT-549 breast) was 26.1 µM and the TGI (BT-549 breast) was 30.4 µM and 213 µM. The GI50 (HOP-92 NSCLC) was 222 µM, the GI50 (NCI-H23 lung) was 8.67 µM and the GI50 (SNB-19 CNS) was 303 µM. The GI50 (UACC-62 melanoma) was 25.4 µM, the TGI (HCT-116 colon) was > 600 µM and the GI50 (HL-60(TB) leukemia) was 37.1 µM. It also gave a GI50 (SN12C renal) of 146 µM, a GI50 (MALME-3M melanoma) of 103 µM and a GI50 (SW-620 colon) of 16.9 µM. The TGI (U251 CNS) was > 600 µM, the TGI (A549 NSCLC) was > 600 µM and the GI50 (MDA-MB-231 breast) was > 600 µM. It also gave a GI50 (SF-295 CNS) of 19.2 µM, a GI50 (MDA-N) of 76.7 µM and a TGI (DU-145 prostate) of 28.2 µM. For the same molecule, the TGI (HOP-62 NSCLC) was 0.862 µM, the GI50 (HT29 colon) was 14.5 µM and the TGI (HT29 colon) was 50 µM and 203 µM. The GI50 (MDA-MB-435) was 91.7 µM, the GI50 (CAKI-1 renal) was 78.5 µM and the GI50 (SF-539 CNS) was 6.55 µM. The TGI (SF-539 CNS) was 14.5 µM and 74.9 µM, the GI50 (M14 melanoma) was 6.24 µM and the TGI (M14 melanoma) was 9.11 µM and 33.2 µM. For the same molecule, the GI50 (K-562 leukemia) was 17.9 µM, the TGI (HCC-2998 colon) was 33.2 µM and the GI50 (UO-31 renal) was 26.2 µM. The GI50 (OVCAR-8 ovarian) was 6.58 µM, the GI50 (A498 renal) was 59.1 µM and the TGI (RPMI-8226 leukemia) was > 600 µM. For the same molecule, the GI50 (COLO 205 colon) was 204 µM, the GI50 (SNB-75 CNS) was 61.7 µM and the GI50 (OVCAR-4 ovarian) was 62.1 µM. For the same molecule, the GI50 (ACHN renal) was 2.63 µM, the GI50 (HS 578T breast) was 270 µM and the GI50 (OVCAR-5 ovarian) was 119 µM. For the same molecule, the GI50 (SK-MEL-28 melanoma) was 86.7 µM, the GI50 (PC-3 prostate) was 19.4 µM and the TGI (PC-3 prostate) was 35.9 µM and 206 µM. The GI50 (RXF 393 renal) was 6.25 µM, the TGI (RXF 393 renal) was 5.9 µM and 19.9 µM and the GI50 (EKVX NSCLC) was 127 µM. The GI50 (SK-MEL-5 melanoma) was 11.3 µM, the TGI (SK-MEL-5 melanoma) was 7.81 µM and 35.1 µM and the GI50 (TK-10 renal) was 18.3 µM. For the same molecule, the GI50 (NCI-H460 lung) was 0.825 µM, the TGI (NCI-H460 lung) was 1.64 µM and 15.5 µM and the GI50 (IGROV1 ovarian) was 89.6 µM. For the same molecule, the TGI (OVCAR-3 ovarian) was 222 µM, the GI50 (CCRF-CEM leukemia) was 51.2 µM and the TGI (786-0 renal) was > 600 µM.
